Measurements reported in patent publication US9255268B2, “Methods for diagnosing and treating learning or mental disorders” (St. Jude Children's Research Hospital, priority 2012, dated 2016).

Legend:
[1] = tested on: LTP at CA3-CA1 synapses in hippocampal slices; assay: LTP of fEPSPs in acute hippocampal slices in the presence of the SERCA inhibitor thapsigargin; format: cell-based, mouse
Procedure: Acute transverse hippocampal slices (400 μm) were prepared according to known methods (Earls, et al. (2010) J. Neurosci. 30:15843-15855). Briefly, mouse brains were quickly removed and placed in cold (4° C.) dissecting artificial CSF (ACSF) containing 125 mM choline-Cl, 2.5 mM KCl, 0.4 mM CaCl2, 6 mM MgCl2, 1.25 mM NaH2PO4, 26 mM NaHCO3, and 20 mM glucose (285-295 mOsm), under 95% O2/5% CO2. After dissection, slices were incubated for 1 hour in ACSF containing 125 mM NaCl, 2.5 mM KCl, 2 mM CaCl2, 2 mM MgCl2, 1.25 mM NaH2PO4, 26 mM NaHCO3, and 10 mM glucose (285-295 mOsm), under 95% O2/5% CO2 at room temperature, and then transferred into submerged recording chambers and superfused (2-3 ml/min) with warm (30-32° C.) ACSF. Field recordings were performed using a setup with eight submerged recording chambers (Campden Instruments). Recordings in each chamber were performed independently. Field EPSPs (fEPSPs) from the CA1 stratum radiatum were recorded by using an extracellular glass pipette (3-5 MΩ) filled with ACSF. Schaffer collateral fibers in the stratum radiatum were stimulated with a bipolar tungsten electrode placed 200-300 μm away from the recording pipette. Stimulation intensities were chosen to produce an fEPSP with a 0.5 V/s slope. LTP was induced by three periods of 200 Hz tetanization delivered every 5 minutes. Each period of tetanization included 10 trains of 200 Hz stimulation delivered at the same intensity for 200 ms (40 stimulations) every 5 seconds. To test whether this increase in SERCA2 was necessary for enhanced LTP in Dgcr8^+/− mice, LTP was measured in the presence of the SERCA inhibitor thapsigargin (4 μM). […] In the absence of thapsigargin, the fEPSP slope increased measured six hours after induction was approximately 120% stronger than in the presence of thapsigargin in slices from Dgcr8^+/− mice (8 mice: 21 slices vehicle, 21 slices thapsigargin; p=0.014).

[2] = tested on: LTP in Dgcr8+/− hippocampus; assay: Rescue of LTP increase in Dgcr8+/− mice by presynaptic restoration of miRNA (AAV into CA3); format: in vivo, mouse; conditions: presynaptic (CA3) AAV expression; injected at 10 weeks, LTP measured at 16 weeks
Procedure: Acute transverse hippocampal slices (400 μm) were prepared according to known methods (Earls, et al. (2010) J. Neurosci. 30:15843-15855). Briefly, mouse brains were quickly removed and placed in cold (4° C.) dissecting artificial CSF (ACSF) containing 125 mM choline-Cl, 2.5 mM KCl, 0.4 mM CaCl2, 6 mM MgCl2, 1.25 mM NaH2PO4, 26 mM NaHCO3, and 20 mM glucose (285-295 mOsm), under 95% O2/5% CO2. After dissection, slices were incubated for 1 hour in ACSF containing 125 mM NaCl, 2.5 mM KCl, 2 mM CaCl2, 2 mM MgCl2, 1.25 mM NaH2PO4, 26 mM NaHCO3, and 10 mM glucose (285-295 mOsm), under 95% O2/5% CO2 at room temperature, and then transferred into submerged recording chambers and superfused (2-3 ml/min) with warm (30-32° C.) ACSF. Field recordings were performed using a setup with eight submerged recording chambers (Campden Instruments). Recordings in each chamber were performed independently. Field EPSPs (fEPSPs) from the CA1 stratum radiatum were recorded by using an extracellular glass pipette (3-5 MΩ) filled with ACSF. Schaffer collateral fibers in the stratum radiatum were stimulated with a bipolar tungsten electrode placed 200-300 μm away from the recording pipette. Stimulation intensities were chosen to produce an fEPSP with a 0.5 V/s slope. LTP was induced by three periods of 200 Hz tetanization delivered every 5 minutes. Each period of tetanization included 10 trains of 200 Hz stimulation delivered at the same intensity for 200 ms (40 stimulations) every 5 seconds.
In Vivo Viral Injections. Adeno-associated viruses (AAVs) were prepared by cloning chimeric hairpins of them iRNAs of interest with hsa-miR-30a into the pAAV-6P-SEWB vector (Christensen, et al. (2010) Front. Neural Circuits 3:16). […]

SERCA2 = assay: Quantitative western blot of SERCA2 in hippocampus after AAV-miRNA injection into CA3; format: in vivo, mouse; conditions: wild-type mice; injection into CA3 at 10 weeks, hippocampi harvested at 16 weeks; versus GFP-only vector
Procedure: Western blots were performed according to known methods (Earls, et al. (2010) supra). For human brain tissue, dissected samples arrived from brain banks frozen on dry ice. Mouse tissue was dissected at 4° C. and prepared either as whole-tissue lysates or as crude P2 synaptosomal fractions. Synaptosomes were prepared using established methods (Gray & Whittaker (1962) J. Anat. 96:79-88). In brief, tissue was homogenized in 10 mM HEPES (pH 7.4)/0.32 M sucrose using a motorized glass-TEFLON homogenizer. To separate the P2 synaptosomal fraction, the homogenate was spun for 5 minutes at 800×g; the supernatant from three successive spins was then centrifuged for 20 minutes at 12,000×g. Tissue or synaptosomal pellets were lysed by freezing and thawing, subsequent syringe passage in ice-cold radioimmunoprecipitation assay buffer (50 mM Tris-HCl (pH 7.4), 1% NP-40, 0.25% sodium deoxycholate, 150 mM NaCl, 1 mM EDTA, and protease inhibitor cocktail tablets (Roche), and finally brief sonication. Concentrations of protein lysates were determined by the BCA assay (Thermo Scientific). A 25 μg sample of each protein extract was electrophoresed on a 10% SDS-PAGE gel, and protein was transferred onto polyvinylidene difluoride membranes (Invitrogen). The primary antibodies used were goat anti-SERCA2 (1:250, sc-8095; Santa Cruz Biotechnology) and mouse anti-β-actin (1:10000, A5316; Sigma-Aldrich). […]

Compound: C/C=C(/C)C(=O)O[C@H]1C(C)=C2[C@H]([C@@H]1OC(=O)CCCCCCC)[C@@](C)(OC(C)=O)C[C@H](OC(=O)CCC)[C@@]1(O)[C@H]2OC(=O)[C@@]1(C)O [thapsigargin]
- fEPSP slope increase in the absence versus the presence of thapsigargin ([1]; six hours after induction, 4 μM, slices from Dgcr8+/− mice, p=0.014): approximately 120%
- LTP increase in Dgcr8+/− slices ([1]; thapsigargin 4 μM, slices from mature Dgcr8+/− mice): rescued the LTP increase
- LTP in slices from wild-type littermates ([1]; thapsigargin 4 μM, wild-type slices, p=0.974): did not affect LTP

Compound: miR-185: microRNA; human mature sequence UGGAGAGAAAGGCAGUUCCUGA (SEQ ID NO:6) (UGGAGAGAAAGGCAGUUCCUGA; expressed or natural sequence; listed as Homo sapiens)
- rescue of increased LTP in Dgcr8+/− hippocampus [2]: sufficient to rescue the increased LTP
- SERCA2 levels (quantitative western blot) (SERCA2): decreased

Compound: miR-98: microRNA; human mature sequence UGAGGUAGUAAGUUGUAUUGUU (SEQ ID NO:4) (UGAGGUAGUAAGUUGUAUUGUU; expressed or natural sequence; listed as Homo sapiens)
- rescue of increased LTP in Dgcr8+/− hippocampus [2]: sufficient to rescue aberrant LTP

Compound: miR-25: microRNA; human mature sequence CAUUGCACUUGUCUCGGUCUGA (SEQ ID NO:2) (CAUUGCACUUGUCUCGGUCUGA; expressed or natural sequence; listed as Homo sapiens)
- rescue of increased LTP in Dgcr8+/− hippocampus [2]: sufficient to rescue the increased LTP
- SERCA2 levels (quantitative western blot) (SERCA2): decreased
